Laboratory results taken from PubChem BioAssay AID1963964 (Molecular Pharmacology Branch, DTP, NCI, 2024).

Tested on: 997726-040-R-J2-PDC tumor spheroids, viability
Test: Anticancer human tumor 997726-040-R-J2-PDC patient-derived squamous cell lung carcinoma cell line growth inhibition [PI3K]
Settings: spheroids with HUVEC and MSC; for IC50: curve of first compound; for viability, T/C: stronger effect = lower value
Description: Combinatorial screen of targeted agents with the PI3K inhibitors inavolisib, alpelisib, duvelisib, and copanlisib in multi-cell type tumor spheroids
A high-throughput screen of multi-cell type tumor spheroids was designed to identify active combinations of targeted small molecules and PI3K pathway inhibitors. Complex spheroids include a stromal component modeled by human endothelial cells (HUVEC) and fibroblasts modeled by human mesenchymal stem cells (MSCs). The concentration ranges selected for each drug and investigational agent were based upon clinically achievable concentrations if the clinical Cmax of the agent was known.
Compounds. The drugs and investigational agents: inavolisib (NSC800729), alpelisib (NSC765974), duvelisib (NSC772469), copanlisib (NSC816437), ipatasertib (NSC767898), afuresertib (NSC778305), talazoparib (NSC767125), sapanisertib (NSC764658), selumetinib (NSC741078), tovorafenib (DAY101, NSC766906), vemurafenib (NSC761431), ravoxertinib (NSC781343), sotorasib (NSC818433), MRTX1133 (NSC 836407), abemaciclib (NSC 768073), palbociclib (NSC758247), venetoclax (NSC 766270), SY5609 (NSC837396), enzalutamide (NSC755605), and darolutamide (NSC825331), were obtained from the National Cancer Institute (NCI) Developmental Therapeutics Program Chemical Repository. The FDA-approved anticancer drug set is available from the NCI Developmental Therapeutics Program. […] The stock solutions were prepared in dimethyl sulfoxide (DMSO, Sigma-Aldrich, St. Louis, MO, cat. D2650) at 800-fold the tested concentration and stored at -70 degrees C prior to their use. All drugs and investigational agents were tested over a range starting from a high concentration at or near the clinical Cmax and decreasing in half-log increments. If the clinical Cmax for an agent had not been determined, the highest concentration tested was 10 microM.
Cell Culture. All cells were maintained in an incubator at 37 degrees C and 5% CO2 with 95% humidity. The PDC lines were cultured according to standard operating procedures established by the NCI PDMR (https://pdmr.cancer.gov/sops/default.htm). All PDCs were thawed and cultured in Matrigel-coated flasks prepared with a working solution of 1X Ham's F-12 nutrient mix, without supplementation (Invitrogen, Waltham, MA, cat. 11765054), 100 U/mL penicillin-streptomycin (Invitrogen, cat. 15140122), and 2.5% Matrigel (Corning Inc., Corning, NY, cat. 354248) for the first three passages. The 354836-022-R-J1-PDC, 475296-252-R-J1-PDC, and 997726-040-R-J2-PDC lines were cultured in 6A media, which includes advanced DMEM/F-12 (Thermo Fisher Scientific, cat. 12634028), 10 mM HEPES (Thermo Fisher Scientific, cat. 15630080), 1X GlutaMAX supplement (Thermo Fisher Scientific, cat. 35050061), 0.1 mg/mL primocin (InvivoGen, San Diego, CA, cat. ant-pm-2), 10% defined fetal bovine serum, heat inactivated (HyClone Laboratories Inc., Logan, UT, cat. SH30070.03HI), 50% L-WRN conditioned media (ATCC, cat. CRL-3276), 1.25 mM N-Acetyl-L-cysteine (Sigma-Aldrich, cat. A9165), 10 mM nicotinamide (Sigma-Aldrich, cat. N0636), 1X B-27 supplement (Thermo Fisher Scientific, cat. 17504044), 1X N-2 supplement (Thermo Fisher Scientific, cat. 17502048), and 10 microM Y-27632 dihydrochloride (Tocris Bioscience, Bristol, United Kingdom, cat. 1254). The 624824-186-R-J2-PDC line was cultured in 6C/Colon 1B media, which includes all 6A media components plus 50 ng/mL human EGF recombinant protein (Thermo Fisher Scientific, cat. PHG0311). […]
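Also: spheroids exposed to compounds for seven days before readout.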

CNC(=O)c1ccc(N2C(=S)N(c3ccc(C#N)c(C(F)(F)F)c3)C(=O)C2(C)C)cc1F + CC(Nc1ccc2c(c1)OCCn1cc(N3C(=O)OCC3C(F)F)nc1-2)C(N)=O
IC50 (second compound 0.00316 µM): > 10 µM | IC50 (second compound 0.01 µM): > 10 µM | IC50 (second compound 0.0316 µM): > 10 µM | IC50 (second compound 0.1 µM): < 0.0316 µM | IC50 (second compound 0.316 µM): < 0.0316 µM | IC50 (second compound 1 µM): < 0.0316 µM | viability, T/C (second compound 0.00316 µM, first compound 0.0316 µM): 82.6% | viability, T/C (second compound 0.00316 µM, first compound 0.1 µM): 86.7% | viability, T/C (second compound 0.00316 µM, first compound 0.316 µM): 89% | viability, T/C (second compound 0.00316 µM, first compound 1 µM): 88.2% | viability, T/C (second compound 0.00316 µM, first compound 3.16 µM): 94.8% | viability, T/C (second compound 0.00316 µM, first compound 10 µM): 83.5% | viability, T/C (second compound 0.01 µM, first compound 0.0316 µM): 74.9% | viability, T/C (second compound 0.01 µM, first compound 0.1 µM): 71.5% | viability, T/C (second compound 0.01 µM, first compound 0.316 µM): 79.6% | viability, T/C (second compound 0.01 µM, first compound 1 µM): 72.8% | viability, T/C (second compound 0.01 µM, first compound 3.16 µM): 78.8% | viability, T/C (second compound 0.01 µM, first compound 10 µM): 72.3% | viability, T/C (second compound 0.0316 µM, first compound 0.0316 µM): 59.5% | viability, T/C (second compound 0.0316 µM, first compound 0.1 µM): 68.3% | viability, T/C (second compound 0.0316 µM, first compound 0.316 µM): 61% | viability, T/C (second compound 0.0316 µM, first compound 1 µM): 61.4% | viability, T/C (second compound 0.0316 µM, first compound 3.16 µM): 67.2% | viability, T/C (second compound 0.0316 µM, first compound 10 µM): 57.4% | viability, T/C (second compound 0.1 µM, first compound 0.0316 µM): 50.2% | viability, T/C (second compound 0.1 µM, first compound 0.1 µM): 45.5% | viability, T/C (second compound 0.1 µM, first compound 0.316 µM): 45.1% | viability, T/C (second compound 0.1 µM, first compound 1 µM): 44.3% | viability, T/C (second compound 0.1 µM, first compound 3.16 µM): 42.4% | viability, T/C (second compound 0.1 µM, first compound 10 µM): 40.3% | viability, T/C (second compound 0.316 µM, first compound 0.0316 µM): 34.6% | viability, T/C (second compound 0.316 µM, first compound 0.1 µM): 32.5% | viability, T/C (second compound 0.316 µM, first compound 0.316 µM): 31.8% | viability, T/C (second compound 0.316 µM, first compound 1 µM): 33% | viability, T/C (second compound 0.316 µM, first compound 3.16 µM): 28.9% | viability, T/C (second compound 0.316 µM, first compound 10 µM): 28.6% | viability, T/C (second compound 1 µM, first compound 0.0316 µM): 34.3% | viability, T/C (second compound 1 µM, first compound 0.1 µM): 27.8% | viability, T/C (second compound 1 µM, first compound 0.316 µM): 26.7% | viability, T/C (second compound 1 µM, first compound 1 µM): 29.6% | viability, T/C (second compound 1 µM, first compound 3.16 µM): 21.4% | viability, T/C (second compound 1 µM, first compound 10 µM): 24.2%
